Source: EP4789665A1, “TREATMENT OF HIS HYPORESPONDERS” (NewAmsterdam Pharma B.V., priority 2021, dated 2023)
Read-outs that look alike come from different tables or passages of the source.

Legend:
[1] = Phase 2 study: plasma obicetrapib concentrations during PK follow-up after end of treatment; format: in vivo, human
Protocol: The screening period for this study took up to 2-weeks. Afterwards patients were randomized to placebo, 5 mg obicetrapib or 10 mg obicetrapib for an 8-week treatment period. After the treatment period, patients continued for a 4-week safety follow-up and a 15-week PK follow-up.
(§1) The primary outcome measure was LDL-C (percent change). Secondary outcome measures included ApoB, Non-HDL-C and HDL-C (percent change). The Intent-to-Treat (ITT) Population included all participants randomized into the study. The Modified ITT (mITT) Population included all participants in the ITT Population who receive at least 1 dose of any study drug and have a baseline value for the LDL-C assessment. The Safety Population included all participants who receive at least 1 dose of any study drug. The mITT Population was the primary population for the efficacy analyses. The primary efficacy analysis of the percent change in LDL-C was performed using a mixed model for repeated measures (MMRM) approach. In order to maintain the overall Type I error rate, the secondary efficacy endpoints were tested sequentially at the 0.05 significance level according to the pre-specified order of hierarchy. All safety endpoints were summarized descriptively. No statistical inference was applied to the safety endpoints. Plasma obicetrapib concentrations were summarized with descriptive statistics based on the PK Population.

CETP = biological target: T1, CETP (Homo sapiens, UniProt P11597); details: TULIP, cited from earlier work
T1 construct: endogenous in cells; host or cells: trial patients (in vivo, circulating plasma CETP)
T1 sequence (P11597 18-493): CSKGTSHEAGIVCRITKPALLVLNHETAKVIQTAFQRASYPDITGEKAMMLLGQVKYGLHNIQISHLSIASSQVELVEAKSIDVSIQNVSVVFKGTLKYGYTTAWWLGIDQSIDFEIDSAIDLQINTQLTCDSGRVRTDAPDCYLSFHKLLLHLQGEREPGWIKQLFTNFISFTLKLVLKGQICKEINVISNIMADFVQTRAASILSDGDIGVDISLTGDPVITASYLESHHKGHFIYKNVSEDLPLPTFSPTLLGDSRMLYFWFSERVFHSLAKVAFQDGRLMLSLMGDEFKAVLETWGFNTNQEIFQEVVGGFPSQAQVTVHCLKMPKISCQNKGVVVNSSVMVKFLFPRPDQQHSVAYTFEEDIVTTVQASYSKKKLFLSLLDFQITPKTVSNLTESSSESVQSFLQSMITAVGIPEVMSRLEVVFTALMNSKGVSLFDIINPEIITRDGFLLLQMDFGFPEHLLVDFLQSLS

[2] = Phase 2 study of obicetrapib as adjunct to high-intensity statin therapy: safety and tolerability (adverse events, laboratory values, vital signs); format: in vivo, human; details: for Neoplasms benign, malignant and unspecified: including cysts and polyps; for AEs, total: subjects (%): safety population
Protocol: Patients were randomly assigned to receive one of the three treatments investigative treatments. All treatments were to be taken once daily with food for 8 weeks. Safety was assessed throughout the trial by monitoring adverse events and concomitant medication use, 12-lead electrocardiograms (ECGs), vital signs, laboratory safety assessments and physical examinations. Additional assessments included salivary cortisol, plasma aldosterone, high-sensitivity C-reactive protein (hsCRP) and endothelin 1.
Safety and tolerability profiles of obicetrapib assessed by clinical laboratory values and incidence of adverse events (AEs).
as §1

[3] = 5 mg group (N=40), listed as obicetrapib
[4] = 10 mg group (N=40), listed as obicetrapib
[5] = either obicetrapib treatment group (5 mg, 10 mg) compared with placebo

CCOC(=O)N1c2ccc(C(F)(F)F)cc2[C@@H](N(Cc2cc(C(F)(F)F)cc(C(F)(F)F)c2)c2ncc(OCCCC(=O)O)cn2)C[C@H]1CC [Obicetrapib, (2R,4S)-4-{[3,5-bis(trifluoromethyl)benzyl]-[5-(3-carboxypropoxy)pyrimidin-2-yl]amino}-2-ethyl-6-trifluoromethyl-3,4-dihydro-2H-quinoline-1-carboxylic acid ethyl ester]
Plasma obicetrapib levels decreased by (median) ([1]; 5 mg group, 4 weeks after the end-of-treatment): 92%
Plasma obicetrapib levels decreased by (median) ([1]; 5 mg group, 8 weeks after the end-of-treatment): 98%
Plasma obicetrapib levels decreased by (median) ([1]; 5 mg group, 15 weeks after the end-of-treatment): 99%
Plasma obicetrapib levels decreased by (median) ([1]; 10 mg group, 4 weeks after the end-of-treatment): 93%
Plasma obicetrapib levels decreased by (median) ([1]; 10 mg group, 8 weeks after the end-of-treatment): 98%
Plasma obicetrapib levels decreased by (median) ([1]; 10 mg group, 15 weeks after the end-of-treatment): 99%
nearly completely cleared from circulation by (time post-treatment) ([1]; after 8 weeks of once daily treatment): 4-8 weeks
LDL-C reductions (CETP; 1 mg for 12 weeks, mild dyslipidemia): 27%
LDL-C reductions (CETP; 2.5 mg for 12 weeks, mild dyslipidemia): 33%
LDL-C reductions (CETP; 5 mg for 12 weeks, mild dyslipidemia): 45%
incremental LDL-C reduction compared with statin monotherapy (CETP; 10 mg daily with 20 mg atorvastatin or 10 mg rosuvastatin, 12 weeks): up to 50%
LDL-C reductions (CETP; 10 mg for 12 weeks, mild dyslipidemia): 45%
LDL-C reductions (CETP; 10 mg obicetrapib plus 10 mg rosuvastatin): 63%
LDL-C reductions (CETP; 10 mg obicetrapib plus 20 mg atorvastatin): 68%
Basal cell carcinoma ([2]; 5 mg (n=40)): 0 (0.0) n (%)
Fatigue ([2]; 5 mg (n=40)): 2 (5.0) n (%)
Gastrointestinal disorders ([2]; 5 mg (n=40)): 3 (7.5) n (%)
General disorders and administration site conditions ([2]; 5 mg (n=40)): 3 (7.5) n (%)
Hypertension ([2]; 5 mg (n=40)): 2 (5.0) n (%)
Infections and infestations ([2]; 5 mg (n=40)): 1 (2.5) n (%)
Injury, poisoning and procedural complications ([2]; 5 mg (n=40)): 3 (7.5) n (%)
Investigations ([2]; 5 mg (n=40)): 2 (5.0) n (%)
Metabolism and nutrition disorders ([2]; 5 mg (n=40)): 2 (5.0) n (%)
Muscle spasms ([2]; 5 mg (n=40)): 0 (0.0) n (%)
Musculoskeletal and connective tissue disorders ([2]; 5 mg (n=40)): 4 (10.0) n (%)
Nausea ([2]; 5 mg (n=40)): 1 (2.5) n (%)
Nervous system disorders ([2]; 5 mg (n=40)): 2 (5.0) n (%)
Respiratory, thoracic and mediastinal disorders ([2]; 5 mg (n=40)): 2 (5.0) n (%)
Type 2 diabetes mellitus ([2]; 5 mg (n=40)): 2 (5.0) n (%)
Vascular disorders ([2]; 5 mg (n=40)): 2 (5.0) n (%)
Neoplasms benign, malignant and unspecified ([2]; 5 mg (n=40)): 0 (0.0) n (%)
tolerability / safety profile ([2]; 5 mg and 10 mg on top of high intensity statin therapy): well tolerated with a safety profile similar to placebo
AEs, related: number of events ([2]; 5 mg group (N=40)): 2
AEs, related: subjects (%) ([2]; 5 mg group (N=40)): 2 (5.0)
AEs, severe ([2]; 5 mg group (N=40)): 0
AEs, total: number of events ([2]; 5 mg group (N=40)): 24
Deaths ([2]; 5 mg group (N=40)): 0
SAEs, related ([2]; 5 mg group (N=40)): 0
SAEs, total ([2]; 5 mg group (N=40)): 0
TEAEs leading to discontinuation of study drug ([2]; 5 mg group (N=40)): 0
TESAEs leading to discontinuation of study ([2]; 5 mg group (N=40)): 0
AEs, total: subjects (%) ([2]; 5 mg group (N=40)): 13 (32.5)
AEs, total: subjects (%) [2, 3]: 15
AEs, related: subjects (%) [2, 3]: 2
Basal cell carcinoma ([2]; 10 mg (n=40)): 0 (0.0) n (%)
Fatigue ([2]; 10 mg (n=40)): 1 (2.5) n (%)
Gastrointestinal disorders ([2]; 10 mg (n=40)): 0 (0.0) n (%)
General disorders and administration site conditions ([2]; 10 mg (n=40)): 2 (5.0) n (%)
Hypertension ([2]; 10 mg (n=40)): 0 (0.0) n (%)
Infections and infestations ([2]; 10 mg (n=40)): 0 (0.0) n (%)
Injury, poisoning and procedural complications ([2]; 10 mg (n=40)): 1 (2.5) n (%)
Investigations ([2]; 10 mg (n=40)): 0 (0.0) n (%)
Metabolism and nutrition disorders ([2]; 10 mg (n=40)): 0 (0.0) n (%)
Muscle spasms ([2]; 10 mg (n=40)): 0 (0.0) n (%)
Musculoskeletal and connective tissue disorders ([2]; 10 mg (n=40)): 4 (10.0) n (%)
Nausea ([2]; 10 mg (n=40)): 0 (0.0) n (%)
Nervous system disorders ([2]; 10 mg (n=40)): 2 (5.0) n (%)
Respiratory, thoracic and mediastinal disorders ([2]; 10 mg (n=40)): 0 (0.0) n (%)
Type 2 diabetes mellitus ([2]; 10 mg (n=40)): 0 (0.0) n (%)
Vascular disorders ([2]; 10 mg (n=40)): 0 (0.0) n (%)
Neoplasms benign, malignant and unspecified ([2]; 10 mg (n=40)): 0 (0.0) n (%)
AEs, related: number of events ([2]; 10 mg group (N=40)): 1
AEs, related: subjects (%) ([2]; 10 mg group (N=40)): 1 (2.5)
AEs, severe ([2]; 10 mg group (N=40)): 0
AEs, total: number of events ([2]; 10 mg group (N=40)): 11
Deaths ([2]; 10 mg group (N=40)): 0
SAEs, related ([2]; 10 mg group (N=40)): 0
SAEs, total ([2]; 10 mg group (N=40)): 0
TEAEs leading to discontinuation of study drug ([2]; 10 mg group (N=40)): 0
TESAEs leading to discontinuation of study ([2]; 10 mg group (N=40)): 0
AEs, total: subjects (%) ([2]; 10 mg group (N=40)): 8 (20.0)
AEs, total: subjects (%) [2, 4]: 8
AEs, related: subjects (%) [2, 4]: 1
laboratory parameters (chemistry, hematology, urinalysis) [2, 5]: no signals in any laboratory parameters
vital signs [2, 5]: no changes in vital signs
